Series [1] concerns the target T1, Canine sEH (Canis lupus familiaris, UniProt A0A8I3NJL8).
T1 sequence (A0A8I3NJL8 1-556): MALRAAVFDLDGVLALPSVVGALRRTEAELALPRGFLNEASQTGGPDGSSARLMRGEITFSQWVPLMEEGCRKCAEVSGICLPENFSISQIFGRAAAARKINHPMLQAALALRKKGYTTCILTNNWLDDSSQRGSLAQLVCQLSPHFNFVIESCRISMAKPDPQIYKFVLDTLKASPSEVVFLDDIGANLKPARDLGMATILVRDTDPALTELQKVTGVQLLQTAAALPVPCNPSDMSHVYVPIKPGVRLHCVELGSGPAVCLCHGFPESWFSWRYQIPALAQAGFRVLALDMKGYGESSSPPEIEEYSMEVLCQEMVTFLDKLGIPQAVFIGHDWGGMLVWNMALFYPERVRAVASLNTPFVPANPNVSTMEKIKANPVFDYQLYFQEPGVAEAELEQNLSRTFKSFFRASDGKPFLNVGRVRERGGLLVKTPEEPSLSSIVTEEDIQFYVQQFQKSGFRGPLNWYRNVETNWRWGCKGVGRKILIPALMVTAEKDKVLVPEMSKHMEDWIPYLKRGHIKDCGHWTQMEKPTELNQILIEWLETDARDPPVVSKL
Description: sEH inhibitor screen of canine sEH. It is filed as biochemical.

Series [2] concerns the target Sheep sEH (Ovis aries, UniProt A0ACI6PZ20). Description: sEH inhibitor screen of domestic animals, radioactive assay, liver cytosolic preparation. The series is classed as biochemical.
In series [3] the test system is COX-1 and COX-2. As to conditions: cited from earlier work.
The conditions of series [4]: Thoroughbred, horse, in vivo, iv, 0.1 mg/kg.
The conditions of series [5]: horse, in vivo, iv, 0.1 mg/kg, 5 days.
Series [6] is described as follows: Plasma concentrations and pharmacokinetics in the laminitic horse. The conditions noted are these: phenylbutazone 3-4 mg/kg BID PO, gabapentin 20 mg/kg BID PO.
Series [7] has as its target T2, sEH (Homo sapiens, UniProt P34913).
T2 sequence (P34913 1-555): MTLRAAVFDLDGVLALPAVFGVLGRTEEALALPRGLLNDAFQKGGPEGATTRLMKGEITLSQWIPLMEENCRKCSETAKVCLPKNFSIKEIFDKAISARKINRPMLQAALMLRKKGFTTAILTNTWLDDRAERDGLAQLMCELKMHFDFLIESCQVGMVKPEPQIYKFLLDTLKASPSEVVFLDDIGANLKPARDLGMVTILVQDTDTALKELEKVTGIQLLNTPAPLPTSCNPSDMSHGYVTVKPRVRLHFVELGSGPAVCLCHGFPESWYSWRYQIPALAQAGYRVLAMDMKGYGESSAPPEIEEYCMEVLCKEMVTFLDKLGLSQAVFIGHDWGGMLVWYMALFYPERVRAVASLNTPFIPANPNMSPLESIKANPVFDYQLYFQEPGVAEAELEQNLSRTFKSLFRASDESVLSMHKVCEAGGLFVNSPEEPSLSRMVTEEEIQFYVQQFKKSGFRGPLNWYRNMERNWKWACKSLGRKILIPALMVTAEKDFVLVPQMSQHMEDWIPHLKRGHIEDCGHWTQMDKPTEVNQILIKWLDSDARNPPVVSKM
Kind of series: Activity as inhibitor of sEH (general statements). The series is classed as biochemical. The text has this: Derivatives of urea are transition state mimetics that form a preferred group of sEH inhibitors. […] Any particular urea derivative or other compound can be easily tested for its ability to inhibit sEH by standard assays, such as those discussed herein. The production and testing of urea and carbamate derivatives as sEH inhibitors is set forth in detail in, for example, Morisseau et al., Proc Natl Acad Sci (USA) 96:8849-8854 (1999).
One category of these inhibitors comprises inhibitors that mimic the substrate for the enzyme. The lipid alkoxides (e.g., the 9-methoxide of stearic acid) are an exemplar of this group of inhibitors.

What is called IC50 is the concentration needed to halve the response being measured.

Chain of Sheep sEH (A0ACI6PZ20 entry or part of it): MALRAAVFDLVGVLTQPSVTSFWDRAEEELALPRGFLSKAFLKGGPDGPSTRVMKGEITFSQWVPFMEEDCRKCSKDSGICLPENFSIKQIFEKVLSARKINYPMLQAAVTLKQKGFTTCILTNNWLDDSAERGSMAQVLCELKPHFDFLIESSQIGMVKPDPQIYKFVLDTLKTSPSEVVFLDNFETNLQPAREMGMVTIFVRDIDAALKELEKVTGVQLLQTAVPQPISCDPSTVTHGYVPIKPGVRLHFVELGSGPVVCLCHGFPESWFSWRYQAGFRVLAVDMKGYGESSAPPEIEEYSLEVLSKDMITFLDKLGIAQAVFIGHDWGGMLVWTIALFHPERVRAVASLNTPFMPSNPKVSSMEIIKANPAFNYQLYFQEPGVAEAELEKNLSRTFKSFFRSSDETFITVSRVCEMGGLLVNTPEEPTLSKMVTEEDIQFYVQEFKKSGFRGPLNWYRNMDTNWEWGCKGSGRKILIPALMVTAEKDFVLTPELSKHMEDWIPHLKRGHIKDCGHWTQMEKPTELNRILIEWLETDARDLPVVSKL

For the compound `O=C(Nc1ccccc1F)N[C@H]1CC[C@H](Oc2ccc(C(=O)O)cc2)CC1` [compound 2736, 4-(trans-4-(3-(2-fluorophenyl)-ureido)-cyclohexyloxy)-benzoic acid], in series [1], the IC50 was found to be 39 nM.

Turning to `O=C(Nc1ccc(OC(F)F)cc1)N[C@H]1CC[C@H](Oc2ccc(C(=O)O)cc2)CC1` [compound 2805, 4-(trans-4-(3-(4-(difluoromethoxy)-phenyl)-ureido)-cyclohexyloxy)-benzoic acid], the IC50 in series [1] worked out at 19 nM.

`O=C(Nc1ccc(OC(F)(F)F)cc1)N[C@H]1CC[C@H](Oc2ccc(-c3nnn[nH]3)cc2)CC1` [compound 2806, 1-(trans-4-(4-(1H-tetrazol-5-yl)-phenoxy)-cyclohexyl)-3-(4-(trifluoromethoxy)-phenyl)-urea] returned an IC50 in series [1] of less than 1 nM.

Turning to `O=C(Nc1ccc(OC(F)(F)F)cc1)Nc1ccc(Oc2ccc(C(=O)O)cc2)cc1F` [compound 2807, 4-(3-fluoro-4-(3-(4-(trifluoromethoxy)-phenyl)-ureido)-phenoxy)-benzoic acid], inhibition in series [1] was half-maximal at 14 nM (IC50).

In the case of `CCS(=O)(=O)N1CCC(NC(=O)Nc2ccc(OC(F)(F)F)cc2)CC1` [compound 2213, 1-(1-ethylsulfonyl-piperidin-4-yl)-3-(4-trifluoromethoxy-phenyl)-urea], the IC50 in series [2] turned out to be 33 nM.

For `O=C(Nc1ccc(OC(F)(F)F)cc1)NC1CCN(C(=O)C2CC2)CC1` [compound 2214, 1-(1-(cyclopropanecarbonyl)piperidin-4-yl)-3-(4-(trifluoromethoxy)phenyl)urea], in series [2], the IC50 is 18 nM.

For `CC(=O)Oc1ccccc1C(=O)O` [Aspirin], the “COX-2 (IC50)/COX-1 (IC50) ratio” value in series [3] is 0.32.

In turn, `CS(=O)(=O)NC(=O)c1ccc(O[C@H]2CC[C@H](NC(=O)Nc3ccc(OC(F)(F)F)cc3)CC2)cc1` [compound 2728, N-(methylsulfonyl)-4-(trans-4-(3-(4-trifluoromethoxy-phenyl)-ureido)-cyclohexyloxy)-benzamide] showed an IC50 in series [1] of 100 nM.

Consider `COc1ccc2c(c1)c(CC(=O)O)c(C)n2C(=O)c1ccc(Cl)cc1` [indomethacin], for which the “COX-2 (IC50)/COX-1 (IC50) ratio” value in series [3] is reported as 33.

For the compound `O=C(Nc1ccc(OC(F)(F)F)cc1)N[C@H]1CC[C@H](Oc2ccc(C(=O)O)cc2)CC1` [compound 1728, trans-4-{4-[3-(4-Trifluoromethoxy-phenyl)-ureido]-cyclohexyloxy}-benzoic acid], in series [4], the “daily plasma concentration, peak (did not reach)” value is less than 2.5 µM and the “daily plasma concentration, trough (fell below on one occasion in the first day)” value is “below 30 nM”. For the same compound, the “adverse effects in clinical exams and blood work” value in series [5] is listed as “No adverse effects were observed”.

With `Cc1oc(=O)oc1COC(=O)c1ccc(O[C@H]2CC[C@H](NC(=O)Nc3ccc(OC(F)(F)F)cc3)CC2)cc1` [compound 2796, (5-methyl-2-oxo-1,3-dioxol-4-yl)methyl 4-((1r,4r)-4-(3-(4-(trifluoromethoxy)-phenyl)-ureido)-cyclohexyloxy)-benzoate], half-maximal inhibition in series [1] (IC50) was put at 38 nM.

Turning to `NCC1(CC(=O)O)CCCCC1` [gabapentin], the “highest measured plasma concentration” value in series [6] turned out to be 18 µM.

For `CCCCCCCCCCCCNC(=O)NC12CC3CC(CC(C3)C1)C2` [ADU, N-Adamantyl-N′-dodecyl urea], in series [7], the “activity on sEH” value is on record as “particularly high activity on sEH”.

In series [1], `O=C(Nc1ccc(Oc2ccc(C(=O)O)cc2)cc1)Nc1ccc(OC(F)(F)F)cc1` [compound 2803, 4-(4-(3-(4-(trifluoromethoxy)-phenyl)-ureido)-phenoxy)-benzoic acid] yielded an IC50 of 42 nM.

Take `CS(=O)(=O)N1CCC(NC(=O)Nc2ccc(OC(F)(F)F)cc2)CC1` [compound 1709, 1-(1-methylsulfonyl-piperidin-4-yl)-3-(4-trifluoromethoxy-phenyl)-urea]: the IC50 in series [2] stood at 30 nM.
